Laboratory results: patent publication US12527886B2, “Radiopharmaceuticals and composition for thrombus imaging” (THE ASAN FOUNDATION, priority 2020, dated 2026)

Experiments:
[1] = Stability of Tc-99m labeled compound by radioTLC; type: physicochemical; conditions: for Eluent A / Eluent B: in % (unit assumed)
Procedure: (§1) After 2.0 mg of GP-104 was dissolved in 1.8 mL of water for injection and 0.2 mL of ethanol, the resulting solution was allowed to stand with a pH of about 5 at room temperature for 10 minutes when 20 μL of SnCl2 (15 mg/mL) and 2 mL of Tc-99m were added thereto, and the reaction was terminated by adjusting the pH to 7 using a NaOH solution. Stability up to 4 hours was confirmed by radioTLC under conditions of pH 5 and pH 7, respectively, and the results are summarized in the following Table 1. (TLC analysis conditions: iTLC was used, Eluent A: methyl ethyl ketone 100%, Eluent B: pyridine:acetic acid:purified water=3:5:15, and purity calculation: Eluent A−Eluent B)
as §1, with “ethanol, pH was adjusted to about 5 and” for “ethanol,”, “stand” for “stand with a pH of about 5”, “(15 mg/mL), 20 μL of cysteine (10” for “(15”, “Table 2.” for “Table 1.”
(§2) After 2.0 mg of GP-105 was dissolved in 1.8 mL of water for injection and 0.2 mL of ethanol, the pH was adjusted to about 5 and the resulting solution was allowed to stand at room temperature for 10 minutes when 20 μL of SnCl2 (15 mg/mL) and 2 mL of Tc-99m were added thereto, and the reaction was terminated by adjusting the pH to 7 using a NaOH solution. Stability until 4 hours under conditions of pH 5 and pH 7 was each confirmed by radioTLC. (TLC analysis conditions: iTLC was used, Eluent A: methyl ethyl ketone 100%, Eluent B: pyridine:acetic acid:purified water=3:5:15, and purity calculation: Eluent A−Eluent B)
as §2, with “ethanol,” for “ethanol, the”, “(15 mg/mL), 20 μL of cysteine (10” for “(15”

[2] = biological target: T1, glycoprotein IIb/IIIa (Rattus norvegicus, UniProt A0A8I6GGN2+Q8R2H2); test: Glycoprotein IIb/IIIa specific uptake in thrombotic disease model, gamma counter / microSPECT; type: in vivo, rats
T1 construct: a disease model in which a thrombus was formed with glycoprotein IIb/IIIa overexpressed; from tissue; host or cells: in vivo rat carotid artery thrombus (ferric chloride model)
T1 sequence (A0A8I6GGN2 32-1037): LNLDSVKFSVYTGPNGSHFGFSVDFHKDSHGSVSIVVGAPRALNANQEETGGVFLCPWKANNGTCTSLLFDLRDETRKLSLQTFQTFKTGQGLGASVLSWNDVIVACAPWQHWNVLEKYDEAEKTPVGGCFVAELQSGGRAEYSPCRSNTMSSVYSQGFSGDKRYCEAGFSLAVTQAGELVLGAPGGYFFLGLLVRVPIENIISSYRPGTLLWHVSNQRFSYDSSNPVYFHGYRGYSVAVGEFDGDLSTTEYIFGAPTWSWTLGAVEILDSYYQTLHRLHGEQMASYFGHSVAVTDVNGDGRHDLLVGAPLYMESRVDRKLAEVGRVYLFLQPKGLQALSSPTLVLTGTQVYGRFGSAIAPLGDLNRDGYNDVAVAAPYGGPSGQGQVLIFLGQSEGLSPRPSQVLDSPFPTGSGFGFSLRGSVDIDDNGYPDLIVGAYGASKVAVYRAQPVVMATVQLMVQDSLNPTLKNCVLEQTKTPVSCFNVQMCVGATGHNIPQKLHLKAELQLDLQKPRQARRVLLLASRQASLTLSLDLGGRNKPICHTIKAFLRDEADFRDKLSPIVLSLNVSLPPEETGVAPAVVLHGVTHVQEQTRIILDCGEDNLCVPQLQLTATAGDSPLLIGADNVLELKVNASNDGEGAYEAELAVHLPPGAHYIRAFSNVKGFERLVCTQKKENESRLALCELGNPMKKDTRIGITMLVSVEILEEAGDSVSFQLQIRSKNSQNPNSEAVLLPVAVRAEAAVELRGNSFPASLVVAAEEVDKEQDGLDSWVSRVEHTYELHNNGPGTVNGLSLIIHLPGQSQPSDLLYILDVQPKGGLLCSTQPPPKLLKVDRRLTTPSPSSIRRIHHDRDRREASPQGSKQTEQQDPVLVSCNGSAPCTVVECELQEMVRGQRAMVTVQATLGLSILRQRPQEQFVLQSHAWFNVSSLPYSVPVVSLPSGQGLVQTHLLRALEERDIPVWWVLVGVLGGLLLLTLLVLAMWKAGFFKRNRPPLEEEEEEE
T1 sequence (Q8R2H2 26-787): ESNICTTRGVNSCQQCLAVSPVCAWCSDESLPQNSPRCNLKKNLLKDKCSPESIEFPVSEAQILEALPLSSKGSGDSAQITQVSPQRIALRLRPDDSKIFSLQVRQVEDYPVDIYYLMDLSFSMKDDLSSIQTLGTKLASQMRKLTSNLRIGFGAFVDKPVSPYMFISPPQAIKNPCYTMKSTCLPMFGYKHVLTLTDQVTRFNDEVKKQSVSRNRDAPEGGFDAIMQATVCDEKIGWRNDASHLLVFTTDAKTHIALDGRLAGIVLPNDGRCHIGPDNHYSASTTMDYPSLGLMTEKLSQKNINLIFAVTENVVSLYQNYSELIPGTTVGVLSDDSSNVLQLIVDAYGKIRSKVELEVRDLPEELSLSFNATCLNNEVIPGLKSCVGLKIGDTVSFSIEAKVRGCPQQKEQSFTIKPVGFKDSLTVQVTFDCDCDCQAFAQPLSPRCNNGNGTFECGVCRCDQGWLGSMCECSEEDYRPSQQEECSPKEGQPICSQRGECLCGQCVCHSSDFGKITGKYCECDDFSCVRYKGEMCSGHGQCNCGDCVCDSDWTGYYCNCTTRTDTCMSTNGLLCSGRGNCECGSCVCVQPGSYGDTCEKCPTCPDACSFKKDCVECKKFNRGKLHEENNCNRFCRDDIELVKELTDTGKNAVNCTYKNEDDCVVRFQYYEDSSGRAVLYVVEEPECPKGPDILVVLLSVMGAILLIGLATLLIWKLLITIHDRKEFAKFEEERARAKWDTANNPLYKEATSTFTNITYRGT
Text: After 6-week-old rats were anesthetized to make a thrombotic disease model, the carotid artery was secured by opening the skin on the carotid artery side. Then, a filter paper soaked with a 5% ferric chloride solution was exposed on the artery, and then washed three times or more with physiological saline, and the incised skin was sutured again to make a model. […]

[3] = Ex 3-1, no cysteine, pH 5, 0 hour
[4] = Ex 3-1, no cysteine, pH 5, 0.5 hours
[5] = Ex 3-1, no cysteine, pH 5, 1.0 hour
[6] = Ex 3-1, no cysteine, pH 5, 1.5 hours
[7] = Ex 3-1, no cysteine, pH 5, 2.0 hours
[8] = Ex 3-1, no cysteine, pH 5, 3.0 hours
[9] = Ex 3-1, no cysteine, pH 5, 4.0 hours
[10] = Ex 3-1, no cysteine, pH 7, 0 hour
[11] = Ex 3-1, no cysteine, pH 7, 0.5 hours
[12] = Ex 3-1, no cysteine, pH 7, 1.0 hour
[13] = Ex 3-1, no cysteine, pH 7, 1.5 hours
[14] = Ex 3-1, no cysteine, pH 7, 2.0 hours
[15] = Ex 3-1, no cysteine, pH 7, 3.0 hours
[16] = Ex 3-1, no cysteine, pH 7, 4.0 hours
[17] = Ex 3-2, cysteine, pH 5, 0.5 hours
[18] = Ex 3-2, cysteine, pH 5, 1.0 hour
[19] = Ex 3-2, cysteine, pH 5, 1.5 hours
[20] = Ex 3-2, cysteine, pH 5, 2.0 hours
[21] = Ex 3-2, cysteine, pH 5, 3.0 hours
[22] = Ex 3-2, cysteine, pH 5, 4.0 hours
[23] = Ex 3-2, cysteine, pH 7, 0.5 hours
[24] = Ex 3-2, cysteine, pH 7, 1.0 hour
[25] = Ex 3-2, cysteine, pH 7, 1.5 hours
[26] = Ex 3-2, cysteine, pH 7, 2.0 hours
[27] = Ex 3-2, cysteine, pH 7, 3.0 hours
[28] = Ex 3-2, cysteine, pH 7, 4.0 hours
[29] = gamma counter, sacrificed at the 2nd hour

O=C(O)C[C@H](NC(=O)[C@@H]1CCCN(C(=O)CCC2CCNCC2)C1)c1cncc(OCCNC(=O)CN2CCN3CCN(CC(=O)O)CC(=O)[O][99Tc+]([O]C(=O)C3)[O]C(=O)C2)c1 [[Tc-99m]GP-104]
Purity [1, 3]: 90.28% | Eluent A [1, 3]: 95.7 | Eluent B [1, 3]: 5.42 | Purity [1, 4]: 91.36% | Eluent A [1, 4]: 95.42 | Eluent B [1, 4]: 4.06 | Purity [1, 5]: 82.28% | Eluent A [1, 5]: 98.43 | Eluent B [1, 5]: 16.15 | Purity [1, 6]: 72.79% | Eluent A [1, 6]: 85.7 | Eluent B [1, 6]: 12.91 | Purity [1, 7]: 70.11% | Eluent A [1, 7]: 91.79 | Eluent B [1, 7]: 21.68 | Purity [1, 8]: 67.71% | Eluent A [1, 8]: 91.64 | Eluent B [1, 8]: 23.93 | Purity [1, 9]: 55.93% | Eluent A [1, 9]: 80.48 | Eluent B [1, 9]: 24.55 | Purity [1, 10]: 90.59% | Eluent A [1, 10]: 98.26 | Eluent B [1, 10]: 7.67 | Purity [1, 11]: 78.04% | Eluent A [1, 11]: 92.82 | Eluent B [1, 11]: 14.78 | Purity [1, 12]: 78.31% | Eluent A [1, 12]: 94.51 | Eluent B [1, 12]: 16.2 | Purity [1, 13]: 82.7% | Eluent A [1, 13]: 96.11 | Eluent B [1, 13]: 13.41 | Purity [1, 14]: 76.61% | Eluent A [1, 14]: 96.22 | Eluent B [1, 14]: 19.61 | Purity [1, 15]: 77.93% | Eluent A [1, 15]: 87.58 | Eluent B [1, 15]: 9.65 | Purity [1, 16]: 54.14% | Eluent A [1, 16]: 73.22 | Eluent B [1, 16]: 19.08 | Purity ([1]; Ex 3-2, cysteine, pH 5, 0 hour): 85.97% | Eluent A ([1]; Ex 3-2, cysteine, pH 5, 0 hour): 89.51 | Eluent B ([1]; Ex 3-2, cysteine, pH 5, 0 hour): 3.54 | Purity [1, 17]: 87.89% | Eluent A [1, 17]: 93.51 | Eluent B [1, 17]: 5.62 | Purity [1, 18]: 90.39% | Eluent A [1, 18]: 93.61 | Eluent B [1, 18]: 3.22 | Purity [1, 19]: 93.47% | Eluent A [1, 19]: 95.55 | Eluent B [1, 19]: 2.08 | Purity [1, 20]: 82.97% | Eluent A [1, 20]: 91.17 | Eluent B [1, 20]: 8.2 | Purity [1, 21]: 86.06% | Eluent A [1, 21]: 89.61 | Eluent B [1, 21]: 3.55 | Purity [1, 22]: 87.56% | Eluent A [1, 22]: 91.99 | Eluent B [1, 22]: 4.43 | Purity ([1]; Ex 3-2, cysteine, pH 7, 0 hour): 96.94% | Eluent A ([1]; Ex 3-2, cysteine, pH 7, 0 hour): 100 | Eluent B ([1]; Ex 3-2, cysteine, pH 7, 0 hour): 3.06 | Purity [1, 23]: 93.36% | Eluent A [1, 23]: 98.3 | Eluent B [1, 23]: 4.94 | Purity [1, 24]: 96.35% | Eluent A [1, 24]: 98.27 | Eluent B [1, 24]: 1.92 | Purity [1, 25]: 97.69% | Eluent A [1, 25]: 100 | Eluent B [1, 25]: 2.31 | Purity [1, 26]: 97.12% | Eluent A [1, 26]: 100 | Eluent B [1, 26]: 2.88 | Purity [1, 27]: 94.14% | Eluent A [1, 27]: 100 | Eluent B [1, 27]: 5.86 | Purity [1, 28]: 95.76% | Eluent A [1, 28]: 100 | Eluent B [1, 28]: 4.24 | Purity ([1]; addition of cysteine, pH of 7, even after 4 hours (text to Table 2)): ≥ 90% | specific uptake in the disease model [2]: high specific uptake | target to non target ratio ([2]; gamma counter, 2nd hour): 2.0 | counts per minute (CPM)/g value, left artery [2, 29]: 1.3 CPM/g | counts per minute (CPM)/g value, right artery [2, 29]: 2.5 CPM/g | background radioactivity excretion ([2]; microSPECT until 4 hours): quick background radioactivity excretion effect
